{"source": "patent US20260355196A1", "about": "“INHIBITORS AND DEGRADERS OF PIP4K PROTEIN” (Larkspur Biosciences, Inc., priority 2023, published 2026)"}
{"target": "T1, PIP4K2C (Homo sapiens, UniProt Q8TBX8)", "T1 sequence (Q8TBX8 1-421)": "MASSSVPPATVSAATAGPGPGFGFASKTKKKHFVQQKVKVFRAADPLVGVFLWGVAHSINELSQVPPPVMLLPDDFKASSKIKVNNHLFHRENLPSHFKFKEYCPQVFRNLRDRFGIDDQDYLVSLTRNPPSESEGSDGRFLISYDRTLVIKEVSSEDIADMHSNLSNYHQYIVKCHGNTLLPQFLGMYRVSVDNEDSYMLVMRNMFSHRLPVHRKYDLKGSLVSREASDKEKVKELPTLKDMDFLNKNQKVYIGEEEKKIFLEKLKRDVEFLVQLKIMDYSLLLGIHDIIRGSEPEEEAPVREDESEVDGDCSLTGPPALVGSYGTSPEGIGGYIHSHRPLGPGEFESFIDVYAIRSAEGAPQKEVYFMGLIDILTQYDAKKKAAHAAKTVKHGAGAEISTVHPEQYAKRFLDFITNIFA", "experiment": "HiBiT PIP4K2C degradation assay in MOLT-4 cells (endogenous PIP4K2C C-terminally tagged with HiBiT)", "format": "cell-based", "design": "untagged in primary human PBMCs and monocyte-derived dendritic cells", "settings": "6 hours of incubation time, rather than 24 hours; MOLT-4, top concentration 10 micromolar; read-out: HiBIT-degradation MOLT4 PIP4k2C DC50 (6 hours, marked *)", "summary_of_the_method": "(§1)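 MOLT-4 cells with endogenous PIP4K2C C-terminally HiBiT-tagged by CRISPR were treated with a 10-point, 3-fold dilution series from 10 micromolar, in duplicate, for 24 h or 6 h at 37 C. Remaining tagged protein read by HiBiT lytic luminescence; DC50 from Hill-equation fit.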", "units": {"DC50": "nM"}}
{"smiles": "O=C1CCC(Nc2ccc(N3CCC(N4CCC(NC(=O)[C@H]5CC[C@H](Nc6ncc(F)c(-c7cccc(-n8ccccc8=O)c7)n6)CC5)CC4)C(F)(F)C3)c(F)c2)C(=O)N1", "note": "(stereo partly drawn) [Compound 431, trans-N-(1′-(4-((2,6-dioxopiperidin-3-yl)amino)-2-fluorophenyl)-3′,3′-difluoro-[1,4′-bipiperidin]-4-yl)-4-((5-fluoro-4-(3-(2-oxopyridin-1(2H)-yl)phenyl)pyrimidin-2-yl)amino)cyclohexane-1-carboxamide]", "DC50": "< 500"}
{"smiles": "Cn1nc(C2CCC(=O)NC2=O)c2ccc(N3CCN(CC4CCN(C(=O)[C@H]5CC[C@H](Nc6ncc(F)c(-c7cccc(-c8ccc[nH]c8=O)c7)n6)CC5)CC4)CC3)cc21", "note": "(stereo partly drawn) [Compound 417, 3-(6-(4-((1-(trans-4-((5-fluoro-4-(3-(2-oxo-1,2-dihydropyridin-3-yl)phenyl)pyrimidin-2-yl)amino)cyclohexane-1-carbonyl)piperidin-4-yl)methyl)piperazin-1-yl)-1-methyl-1H-indazol-3-yl)piperidine-2,6-dione]", "DC50": "< 500"}
{"smiles": "O=C1CC[C@H](Nc2ccc(C3CCN(CC4CCN(C(=O)[C@H]5CC[C@H](Nc6ncc(F)c(-c7cccc(N8CCCCC8=O)c7)n6)CC5)CC4)CC3)c(F)c2)C(=O)N1", "note": "(single isomer, unassigned) [Compound 449]", "DC50": "< 500"}
{"smiles": "O=C1CCC(Nc2ccc(C3CCN([C@H]4CC[C@H](C(=O)N[C@H]5CC[C@H](Nc6ncc(F)c(-c7ccnc(N8CCCOC8=O)c7)n6)CC5)CC4)CC3)c(F)c2)C(=O)N1", "note": "(stereo partly drawn) [Compound 572, trans-(1r,4R)-4-(4-(4-((2,6-dioxopiperidin-3-yl)amino)-2-fluorophenyl)piperidin-1-yl)-N-((1r,4R)-4-((5-fluoro-4-(2-(2-oxo-1,3-oxazinan-3-yl)pyridin-4-yl)pyrimidin-2-yl)amino)cyclohexyl)cyclohexane-1-carboxamide]", "DC50": "< 500"}
{"smiles": "O=C1CCC(n2c(=O)oc3cc(N4CCN(CC5CCN(C(=O)[C@H]6CC[C@H](Nc7ncc(F)c(-c8cccc(-n9ccccc9=O)c8)n7)CC6)CC5)CC4)ccc32)C(=O)N1", "note": "(stereo partly drawn) [Compound 397, trans-3-(6-(4-((1-(4-((5-fluoro-4-(3-(2-oxopyridin-1(2H)-yl)phenyl)pyrimidin-2-yl)amino)cyclohexane-1-carbonyl)piperidin-4-yl)methyl)piperazin-1-yl)-2-oxobenzo[d]oxazol-3 (2H)-yl)piperidine-2,6-dione]", "DC50": "< 500"}
{"smiles": "O=C1CCC(Nc2ccc(N3CCN([C@H]4CC[C@H](CC(=O)N5CCC(Nc6ncc(F)c(-c7cccc(-n8ccccc8=O)c7)n6)CC5)CC4)CC3)c(F)c2)C(=O)N1", "note": "(stereo partly drawn) [Compound 650, trans-3-((3-fluoro-4-(4-(4-(2-(4-((5-fluoro-4-(3-(2-oxopyridin-1 (2H)-yl)phenyl)pyrimidin-2-yl)amino)piperidin-1-yl)-2-oxoethyl)cyclohexyl)piperazin-1-yl)phenyl)amino)piperidine-2,6-dione]", "DC50": "> 5000"}
{"smiles": "O=C1CCC(Nc2ccc(N3CCC(N4CCC(NC(=O)[C@H]5CC[C@H](Nc6ncc(F)c(-c7cccc(N8CCCCC8=O)c7)n6)CC5)CC4)C(F)(F)C3)c(F)c2)C(=O)N1", "note": "(stereo partly drawn) [Compound 494, trans-N-(1′-(4-((2,6-dioxopiperidin-3-yl)amino)-2-fluorophenyl)-3′,3′-difluoro-[1,4′-bipiperidin]-4-yl)-4-((5-fluoro-4-(3-(2-oxopiperidin-1-yl)phenyl)pyrimidin-2-yl)amino)cyclohexane-1-carboxamide]", "DC50": "< 500"}
{"smiles": "O=C1CCC(Nc2ccc(C3CCN([C@H]4CC[C@H](C(=O)N[C@H]5CC[C@H](Nc6ncc(F)c(-c7cccc(N8CCCCC8=O)n7)n6)CC5)CC4)CC3)c(F)c2)C(=O)N1", "note": "(stereo partly drawn) [Compound 566, trans-(1r,4R)-4-(4-(4-((2,6-dioxopiperidin-3-yl)amino)-2-fluorophenyl)piperidin-1-yl)-N-((1r,4R)-4-((5-fluoro-4-(6-(2-oxopiperidin-1-yl)pyridin-2-yl)pyrimidin-2-yl)amino)cyclohexyl)cyclohexane-1-carboxamide]", "DC50": "< 500"}
{"smiles": "O=C1CC[C@@H](Nc2ccc(C3CCN(CC4CCN(C(=O)[C@H]5CC[C@H](Nc6ncc(F)c(-c7cccc(N8CCCOC8=O)c7)n6)CC5)CC4)CC3)c(F)c2)C(=O)N1", "note": "(single isomer, unassigned) [Compound 601]", "DC50": "< 500"}
{"smiles": "O=C1CCC(Nc2ccc(C3CCN(CC4(O)CCN(C(=O)[C@H]5CC[C@H](Nc6ncc(F)c(-c7cccc(N8CCOCC8=O)c7)n6)CC5)CC4)CC3)c(F)c2)C(=O)N1", "note": "(stereo partly drawn) [Compound 578, trans-3-((3-fluoro-4-(1-((1-(4-((5-fluoro-4-(3-(3-oxomorpholino)phenyl)pyrimidin-2-yl)amino)cyclohexane-1-carbonyl)-4-hydroxypiperidin-4-yl)methyl)piperidin-4-yl)phenyl)amino)piperidine-2,6-dione]", "DC50": "< 500"}
{"smiles": "O=C1CCC(Nc2ccc(C3CCN(CC4CCN(C(=O)[C@H]5CC[C@H](Nc6ncc(F)c(-c7cccc(-c8ccc[nH]c8=O)c7)n6)CC5)CC4)CC3)c(F)c2)C(=O)N1", "note": "(stereo partly drawn) [Compound 384, trans-3-((3-fluoro-4-(1-((1-(4-((5-fluoro-4-(3-(2-oxo-1,2-dihydropyridin-3-yl)phenyl)pyrimidin-2-yl)amino)cyclohexane-1-carbonyl)piperidin-4-yl)methyl)piperidin-4-yl)phenyl)amino)piperidine-2,6-dione]", "DC50": "< 500"}
{"target": "T1, PIP4K2C", "experiment": "HiBiT PIP4K2C degradation assay in MOLT-4 cells (endogenous PIP4K2C C-terminally tagged with HiBiT)", "format": "cell-based", "design": "untagged in primary human PBMCs and monocyte-derived dendritic cells", "settings": "24 hours incubation, MOLT-4, top concentration 10 micromolar; read-out: HiBIT-degradation MOLT4 PIP4k2C 24 hours DC50", "summary_of_the_method": "as §1", "units": {"DC50": "nM"}}
{"smiles": "O=C1CCC(N2Cc3cc(C4CCN(C5CCN(CCC(=O)N6CCC(Nc7ncc(Cl)c(-c8cccc(-c9ccccc9)c8)n7)CC6)CC5)CC4)ccc3C2=O)C(=O)N1", "note": "(stereo not drawn) [Compound 86, 3-(5-(1′-(3-(4-((4-([1,1′-biphenyl]-3-yl)-5-chloropyrimidin-2-yl)amino)piperidin-1-yl)-3-oxopropyl)-[1,4′-bipiperidin]-4-yl)-1-oxoisoindolin-2-yl)piperidine-2,6-dione]", "DC50": "500 to 1000"}
{"smiles": "O=C1CCC(Nc2ccc(C3CCN(CCC4CCN(C(=O)[C@H]5CCC[C@@H](Nc6ncc(F)c(-c7cccc(-n8ccccc8=O)c7)n6)C5)CC4)CC3)c(F)c2)C(=O)N1", "note": "(stereo partly drawn) [Compound 309, 3-((3-fluoro-4-(1-(2-(1-((1S,3R)-3-((5-fluoro-4-(3-(2-oxopyridin-1(2H)-yl)phenyl)pyrimidin-2-yl)amino)cyclohexane-1-carbonyl)piperidin-4-yl)ethyl)piperidin-4-yl)phenyl)amino)piperidine-2,6-dione]", "DC50": "> 5000"}
{"smiles": "O=C1CCC(Nc2ccc(N3CCC(N4CCC(C(=O)N[C@H]5CC[C@H](Nc6ncc(F)c(-c7cccc(-n8ccccc8=O)c7)n6)CC5)CC4)CC3)c(F)c2)C(=O)N1", "note": "(stereo partly drawn) [Compound 305, trans-1′-(4-((2,6-dioxopiperidin-3-yl)amino)-2-fluorophenyl)-N-(4-((5-fluoro-4-(3-(2-oxopyridin-1(2H)-yl)phenyl)pyrimidin-2-yl)amino)cyclohexyl)-[1,4′-bipiperidine]-4-carboxamide]", "DC50": "< 500"}
{"smiles": "O=C1CCC(n2c(=O)oc3cc(C4CCN(CC5CCN(CC(=O)N6CCC(Nc7ncc(F)c(-c8cccc(N9CCCOC9=O)c8)n7)CC6)CC5)CC4)ccc32)C(=O)N1", "note": "(stereo not drawn) [Compound 371, 3-(6-(1-((1-(2-(4-((5-fluoro-4-(3-(2-oxo-1,3-oxazinan-3-yl)phenyl)pyrimidin-2-yl)amino)piperidin-1-yl)-2-oxoethyl)piperidin-4-yl)methyl)piperidin-4-yl)-2-oxobenzo[d]oxazol-3 (2H)-yl)piperidine-2,6-dione]", "DC50": "< 500"}
